A short description of the experiment: Binding affinity to BTN3A1 in human PBMC assessed as stimulation of Vgamma9 Vdelta2 T cells incubated for 3 days and measured after 11 days post compound removal by flow cytometry.

The structures appear in SMILES notation.

As to `CCOC(=O)CNP(=O)(CC/C=C(\C)CO)Oc1ccccc1` (stereo not given), the EC50 amounted to 0.36 nM. Then `CCOC(=O)CNP(=O)(CC/C=C(\C)CO)Oc1ccc2ccccc2c1` (stereo not given), with 0.53 nM; and `COP(=O)(CC/C=C(\C)CO)OC`, with more than 10000 nM; and `CCOC(=O)CNP(=O)(CC/C=C(\C)CO)Oc1cccc2ccccc12` (stereo not given), with 0.36 nM. Then `C/C(=C\CCP(=O)(NCC(=O)OC(C)C)Oc1ccccc1)CO` (stereo not given), with 1.1 nM; and `COC(=O)CNP(=O)(CC/C=C(\C)CO)Oc1ccc2ccccc2c1` (stereo not given), with 0.58 nM; and `COC(=O)CNP(=O)(CC/C=C(\C)CO)Oc1cccc2ccccc12` (stereo not given), with 0.44 nM. For `C/C(=C\CCP(=O)(NCC(=O)OC(C)C)Oc1cccc2ccccc12)CO` (stereo not given), the EC50 turned out to be 0.34 nM.

Take `COC(=O)CNP(=O)(CC/C=C(\C)CO)Oc1ccccc1` (stereo not given): the EC50 turned out to be 1.5 nM. Then `C/C(=C\CCP(=O)(NCC(=O)OC(C)C)Oc1ccc2ccccc2c1)CO` (stereo not given), with 0.82 nM.

For the origin of these results see BindingDB's records for doi:10.1021/acs.jmedchem.8b00655 (University of Iowa, 2018).
